Measured values taken from patent US12139520B2 (priority 2020, dated 2024).
Numbered stars: 1 amine (or outer) side, 2 acyl side, 3 side chain; on linkers, the order of the positions; unused ones are H or OH. Bridge positions count the residues as written; N and C are the ends. Square brackets hold non-standard residues; d marks the D form. Peptide text beside a SMILES is read from it. * marks the point of attachment. C20 diacid = O=C(O)CCCCCCCCCCCCCCCCCCC(=O)*; γGlu = O=C(O)[C@H](CCC(=O)[*:2])N[*:1]; Hyp = O=C(O)[C@@H]1C[C@@H](O)CN1

Assays:
[1] = Physical stability of peptide analogues (Thioflavin T fibrillation); format: physicochemical; details: maximum ThT signal normalized between hAMY maximum and buffer background; 40° C., shaking, four days; pH 7 per table title
Description: General Protocols for Determination of Physical Stability of Peptide Analogues
Peptides were dissolved in buffers (50 mM sodium acetate at pH 4 or 50 mM sodium phosphate at pH 7) and incubated for one hour. The samples were then divided into two replicates of 80 μl in a black 384 well plate (μ-clear, Greiner Bio-One) and mixed with Thioflavin T (ThT) to a final concentration of 4 μM. The plate was sealed and placed in a plate reader (CLARIOstar, BMG) where the temperature was set at 40° C. during the course of the experiment. The samples were further stressed by shaking the plate at 700 rpm (linear) for five minutes before every measurement. The fluorescence was measured every 10 min for four days by exciting the ThT at 450 nm and measuring the emission at 480 nm. For each peptide, the ThT signal over time was smoothened using Local Polynomial Regression fitting (LOESS) as implemented in the statistical programming environment R. For the smoothened data, the maximum ThT signal was normalized in percent between the maximum ThT signal for hAMY and the buffer background.

[2] = target: T1, hAMY3 receptor (Homo sapiens, UniProt O60896+P30988); assay: cAMP assay for in vitro receptor activation, hAMY3-R; format: cell-based; details: cAMP assay, hAMY3 receptor; read-out: hAMY3R EC50
T1 sequence (P30988 25-474): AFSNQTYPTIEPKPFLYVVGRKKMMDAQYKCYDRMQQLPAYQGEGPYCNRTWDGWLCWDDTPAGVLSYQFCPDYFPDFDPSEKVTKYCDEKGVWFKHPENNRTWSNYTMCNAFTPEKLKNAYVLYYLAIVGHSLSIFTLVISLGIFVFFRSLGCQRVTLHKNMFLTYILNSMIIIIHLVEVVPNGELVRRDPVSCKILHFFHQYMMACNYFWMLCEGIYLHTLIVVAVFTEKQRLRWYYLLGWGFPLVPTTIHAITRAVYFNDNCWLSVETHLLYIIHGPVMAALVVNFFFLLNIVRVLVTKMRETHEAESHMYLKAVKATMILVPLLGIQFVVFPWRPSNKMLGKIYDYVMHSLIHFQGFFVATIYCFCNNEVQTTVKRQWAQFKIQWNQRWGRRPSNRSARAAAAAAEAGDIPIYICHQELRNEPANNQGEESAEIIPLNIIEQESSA
T1 sequence (O60896 24-148 partner): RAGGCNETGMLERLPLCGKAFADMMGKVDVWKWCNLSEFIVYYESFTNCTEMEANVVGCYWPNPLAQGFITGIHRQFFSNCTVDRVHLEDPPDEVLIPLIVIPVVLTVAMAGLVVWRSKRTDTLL
Summary of the method: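 Graded compound concentrations were applied for 30 min at room temperature to stably hAMY3-expressing cells in DPBS, 0.05% casein, 0.5 mM IBMX; cAMP detected by TR-FRET.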

Row | Max ThT signal (%) [1] | EC50 [2] | SMILES
1 | 3.200% |  | CC[C@H](C)[C@H](NC(=O)[C@H](CCC(N)=O)NC(=O)[C@H](Cc1c[nH]cn1)NC(=O)[C@H](C)NC(=O)[C@H](CC(C)C)NC(=O)[C@H](CCCNC(=N)N)NC(=O)[C@H](CCC(N)=O)NC(=O)[C@@H](NC(=O)[C@@H](NC(=O)[C@@H]1CSSC[C@H](NC(=O)CN)C(=O)N[C@@H](CCCNC(=N)N)C(=O)N[C@@H](Cc2ccccc2)C(=O)NCC(=O)N[C@@H]([C@@H](C)O)C(=O)N1)[C@@H](C)O)C(C)C)C(=O)N[C@@H](Cc1ccc(O)cc1)C(=O)N[C@@H](CCC(N)=O)C(=O)N[C@@H](Cc1ccccc1)C(=O)N[C@H](C(=O)N[C@@H](CC(=O)O)C(=O)N[C@@H](CCCCN)C(=O)N[C@@H](CC(=O)O)C(=O)N[C@@H](CCCCN)C(=O)N[C@@H](CC(=O)O)C(=O)N[C@@H](CC(N)=O)C(=O)N[C@H](C(=O)N[C@@H](C)C(=O)N1CCC[C@H]1C(=O)N[C@@H](CCCNC(=N)N)C(=O)N[C@@H](CO)C(=O)N[C@@H](CCCCN)C(=O)N[C@H](C(=O)N[C@@H](CO)C(=O)N1CCC[C@H]1C(=O)N[C@@H](CC(N)=O)C(=O)NCC(=O)N1C[C@H](O)C[C@H]1C(N)=O)C(C)C)C(C)C)[C@@H](C)O [compound 175] (H-GCRFGTCTVQRLAHQIYQFTDKDKDNVAPRSKVSPNG[Hyp]-NH2; disulfide 2-7)
2 | 2.200% |  | CC[C@H](C)[C@H](NC(=O)[C@H](CCC(N)=O)NC(=O)[C@H](Cc1c[nH]cn1)NC(=O)[C@H](C)NC(=O)[C@H](CC(C)C)NC(=O)[C@H](CCCNC(=N)N)NC(=O)[C@H](CCC(N)=O)NC(=O)[C@@H](NC(=O)[C@@H](NC(=O)[C@@H]1CSSC[C@H](NC(=O)CN)C(=O)N[C@@H](CCCNC(=N)N)C(=O)N[C@@H]([C@@H](C)O)C(=O)NCC(=O)N[C@@H]([C@@H](C)O)C(=O)N1)[C@@H](C)O)C(C)C)C(=O)N[C@@H](Cc1ccc(O)cc1)C(=O)N[C@@H](CCC(N)=O)C(=O)N[C@@H](Cc1ccccc1)C(=O)N[C@H](C(=O)N[C@@H](CC(=O)O)C(=O)N[C@@H](CCCCN)C(=O)N[C@@H](CC(=O)O)C(=O)N[C@@H](CCCCN)C(=O)N[C@@H](CC(=O)O)C(=O)N[C@@H](CC(N)=O)C(=O)N[C@H](C(=O)N[C@@H](C)C(=O)N1CCC[C@H]1C(=O)N[C@@H](CCCNC(=N)N)C(=O)N[C@@H](CO)C(=O)N[C@@H](CCCCN)C(=O)N[C@H](C(=O)N[C@@H](CO)C(=O)N1CCC[C@H]1C(=O)N[C@@H](CC(N)=O)C(=O)NCC(=O)N1C[C@H](O)C[C@H]1C(N)=O)C(C)C)C(C)C)[C@@H](C)O [compound 204] (H-GCRTGTCTVQRLAHQIYQFTDKDKDNVAPRSKVSPNG[Hyp]-NH2; disulfide 2-7; N-terminus assumed)
3 |  | 0.048 nM | CC[C@H](C)[C@H](NC(=O)[C@H](CCCCN)NC(=O)[C@@H](NC(=O)[C@H](CCCNC(=N)N)NC(=O)[C@@H]1CCCN1C(=O)[C@H](C)NC(=O)[C@@H](NC(=O)[C@H](CC(N)=O)NC(=O)[C@H](CC(=O)O)NC(=O)[C@H](CCCCN)NC(=O)[C@H](CC(=O)O)NC(=O)[C@H](CCCCN)NC(=O)[C@H](CC(=O)O)NC(=O)[C@@H](NC(=O)[C@H](Cc1ccccc1)NC(=O)[C@H](CCC(N)=O)NC(=O)[C@H](Cc1ccc(O)cc1)NC(=O)[C@H](CC(C)C)NC(=O)[C@H](Cc1ccccc1)NC(=O)[C@H](Cc1c[nH]cn1)NC(=O)[C@H](C)NC(=O)[C@H](CC(C)C)NC(=O)[C@H](CCCNC(=N)N)NC(=O)[C@H](CCC(N)=O)NC(=O)[C@@H](NC(=O)[C@@H](NC(=O)[C@@H]1CSSC[C@H](NC(=O)CNC(=O)CC[C@H](NC(=O)CCCCCCCCCCCCCCCCCCC(=O)O)C(=O)O)C(=O)N[C@@H](CCCNC(=N)N)C(=O)N[C@@H](Cc2ccccc2)C(=O)NCC(=O)N[C@@H]([C@@H](C)O)C(=O)N1)[C@@H](C)O)C(C)C)[C@@H](C)O)C(C)C)[C@@H](C)O)C(=O)NCC(=O)N1CCC[C@H]1C(=O)N[C@@H](CCC(N)=O)C(=O)NCC(=O)N[C@@H](Cc1ccc(O)cc1)C(N)=O [compound 390] ({C20 diacid-γGlu}-GCRFGTCTVQRLAHFLYQFTDKDKDNVAPRTKIGPQGY-NH2; disulfide 2-7)
4 |  | 0.019 nM | CC[C@H](C)[C@H](NC(=O)[C@H](CCC(N)=O)NC(=O)[C@H](Cc1c[nH]cn1)NC(=O)[C@H](C)NC(=O)[C@H](CC(C)C)NC(=O)[C@H](CCCNC(=N)N)NC(=O)[C@H](CCC(N)=O)NC(=O)[C@@H](NC(=O)[C@@H](NC(=O)[C@@H]1CSSC[C@H](NC(=O)CN)C(=O)N[C@@H](CCCNC(=N)N)C(=O)N[C@@H](Cc2ccccc2)C(=O)NCC(=O)N[C@@H]([C@@H](C)O)C(=O)N1)[C@@H](C)O)C(C)C)C(=O)N[C@@H](Cc1ccc(O)cc1)C(=O)N[C@@H](CCC(N)=O)C(=O)N[C@@H](Cc1ccccc1)C(=O)N[C@H](C(=O)N[C@@H](CC(=O)O)C(=O)N[C@@H](CCCCN)C(=O)N[C@@H](CC(=O)O)C(=O)N[C@@H](CCCCN)C(=O)N[C@@H](CC(=O)O)C(=O)N[C@@H](CC(N)=O)C(=O)N[C@H](C(=O)N[C@@H](C)C(=O)N1CCC[C@H]1C(=O)N[C@@H](CCCNC(=N)N)C(=O)N[C@H](C(=O)N[C@@H](CCCCN)C(=O)N[C@H](C(=O)N[C@@H](CO)C(=O)N1CCC[C@H]1C(=O)N[C@@H](CC(N)=O)C(=O)NCC(=O)N[C@@H](Cc1ccc(O)cc1)C(N)=O)[C@@H](C)CC)[C@@H](C)O)C(C)C)[C@@H](C)O [compound 371] (H-GCRFGTCTVQRLAHQIYQFTDKDKDNVAPRTKISPNGY-NH2; disulfide 2-7; N-terminus assumed)
5 |  | 0.032 nM | CC[C@H](C)[C@H](NC(=O)[C@H](CC(N)=O)NC(=O)[C@@H](NC(=O)[C@H](CCCNC(=N)N)NC(=O)[C@@H]1CCCN1C(=O)[C@H](C)NC(=O)[C@@H](NC(=O)[C@H](CC(N)=O)NC(=O)[C@H](CC(=O)O)NC(=O)[C@H](CCCCN)NC(=O)[C@H](CC(=O)O)NC(=O)[C@H](CCCCN)NC(=O)[C@H](CC(=O)O)NC(=O)[C@@H](NC(=O)[C@H](Cc1ccccc1)NC(=O)[C@H](CCC(N)=O)NC(=O)[C@H](Cc1ccc(O)cc1)NC(=O)[C@@H](NC(=O)[C@H](CCC(N)=O)NC(=O)[C@H](Cc1c[nH]cn1)NC(=O)[C@H](C)NC(=O)[C@H](CC(C)C)NC(=O)[C@H](CCCNC(=N)N)NC(=O)[C@H](CCC(N)=O)NC(=O)[C@@H](NC(=O)[C@@H](NC(=O)[C@@H]1CSSC[C@H](NC(=O)CN)C(=O)N[C@@H](CCCNC(=N)N)C(=O)N[C@@H](Cc2ccccc2)C(=O)NCC(=O)N[C@@H]([C@@H](C)O)C(=O)N1)[C@@H](C)O)C(C)C)[C@@H](C)CC)[C@@H](C)O)C(C)C)[C@@H](C)O)C(=O)NCC(=O)N1CCC[C@H]1C(=O)N[C@@H](CC(N)=O)C(=O)NCC(=O)N[C@@H](Cc1ccc(O)cc1)C(N)=O [compound 381] (H-GCRFGTCTVQRLAHQIYQFTDKDKDNVAPRTNIGPNGY-NH2; disulfide 2-7; N-terminus assumed)
